Laboratory results published in US20120083489A1, “BIS-PYRIDYLPYRIDONES AS MELANIN-CONCENTRATING HORMONE RECEPTOR ANTAGONISTS” (priority 2009, published 2012).

What follows are molecules tested against T1, hMCHR1 (Homo sapiens, UniProt Q99705) (assay: MCHR1 pIC50 determination FLIPR assay). Conditions: HEK293 cells stably transfected with hMCHR1; MCH challenge at 4xEC50.
T1 construct: expressed in transfected cells; host or cells: HEK293
Assay type: cell-based
Method: MCHR1 plC50 Determination FLIPR™Assay: HEK293 cells stably transfected with hMCHR1 were propagated as adherent cultures at 37° C. in a humidified incubator. Cells were split 1:8 at 90% confluency two times per week. New cell stocks were recovered from storage every two months. Cells were plated in black 384-well plates (Greiner) 24 hours prior to assay at 15,000 cells/well in 50 μL DMEM/F12, 10% FBS, 2 mM I-glutamine. Compounds to be profiled were prepared by making a stock solution at 3×10^−3M in 100% DMSO. The stock solutions were serially diluted 1:4 in 100% DMSO using JANUS (PerkinElmer) liquid handling instrument to allow for an 11 point curve in singlicate. At the time of the assay, the media was removed from the cell plate by aspiration, followed by the addition of 20 μL of loading buffer (Calcium 4 Kit, […]). Following 50 min incubation at 37° C., 10 μL of compound was added to the plates via the FLIPR™ instrument (Molecular Dynamics corporation). The plates were incubated at room temperature for 15 minutes along with an MCH peptide agonist challenge plate. On the FLIPR™, a basal response was collected over 10 seconds followed by the addition of 10 μL of MCH challenge concentration at 4×EC50. Data was collected over 4 minutes and subjected to a nonlinear regression analysis curve fitting program to generate plC50s.

T1 sequence (Q99705 whole entry): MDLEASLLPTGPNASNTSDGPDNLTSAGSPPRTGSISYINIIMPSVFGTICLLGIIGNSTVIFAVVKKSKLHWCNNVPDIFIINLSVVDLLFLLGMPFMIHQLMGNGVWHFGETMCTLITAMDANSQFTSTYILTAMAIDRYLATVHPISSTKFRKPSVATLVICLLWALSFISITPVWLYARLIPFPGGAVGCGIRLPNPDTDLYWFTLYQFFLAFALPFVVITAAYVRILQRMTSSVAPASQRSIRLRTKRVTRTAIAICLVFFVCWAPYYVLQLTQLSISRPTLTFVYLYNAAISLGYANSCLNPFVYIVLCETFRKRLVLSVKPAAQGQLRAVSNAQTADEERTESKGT

First: CS(=O)(=O)NCCNc1ccc(-n2ccc(OCc3ccc(Cl)cn3)cc2=O)cn1 [Example 20]
Second: CCS(=O)(=O)NCCNc1ccc(-n2ccc(OCc3ccc(Cl)cn3)cc2=O)cn1 [Example 27]
The IC50 of the first is 1.8-fold lower: 0.05 µM for the first, 0.09 µM for the second. The first is the more potent here.

Work on `CCN(CC)CCNc1ccc(-n2ccc(OCc3ccc(Cl)cn3)cc2=O)cn1` [Example 8] yielded an IC50 of 0.025 µM.
